From article PMC4206343, “A Novel Aminothiazole KY-05009 with Potential to Inhibit Traf2- and Nck-Interacting Kinase (TNIK) Attenuates TGF-β1-Mediated Epithelial-to-Mesenchymal Transition in Human Lung Adenocarcinoma A549 Cells” (PLoS ONE, 2014)
pKi: −log10 of the molar value.

Molecular target: Traf2- and Nck-interacting kinase (TNIK) (Homo sapiens, UniProt Q9UKE5)
Assay: ATP competition binding assay (KdELECT, KINOMEscan), triplicate 11-point dose-response curves

Traf2- and Nck-interacting kinase (TNIK), sequence (Q9UKE5 whole entry): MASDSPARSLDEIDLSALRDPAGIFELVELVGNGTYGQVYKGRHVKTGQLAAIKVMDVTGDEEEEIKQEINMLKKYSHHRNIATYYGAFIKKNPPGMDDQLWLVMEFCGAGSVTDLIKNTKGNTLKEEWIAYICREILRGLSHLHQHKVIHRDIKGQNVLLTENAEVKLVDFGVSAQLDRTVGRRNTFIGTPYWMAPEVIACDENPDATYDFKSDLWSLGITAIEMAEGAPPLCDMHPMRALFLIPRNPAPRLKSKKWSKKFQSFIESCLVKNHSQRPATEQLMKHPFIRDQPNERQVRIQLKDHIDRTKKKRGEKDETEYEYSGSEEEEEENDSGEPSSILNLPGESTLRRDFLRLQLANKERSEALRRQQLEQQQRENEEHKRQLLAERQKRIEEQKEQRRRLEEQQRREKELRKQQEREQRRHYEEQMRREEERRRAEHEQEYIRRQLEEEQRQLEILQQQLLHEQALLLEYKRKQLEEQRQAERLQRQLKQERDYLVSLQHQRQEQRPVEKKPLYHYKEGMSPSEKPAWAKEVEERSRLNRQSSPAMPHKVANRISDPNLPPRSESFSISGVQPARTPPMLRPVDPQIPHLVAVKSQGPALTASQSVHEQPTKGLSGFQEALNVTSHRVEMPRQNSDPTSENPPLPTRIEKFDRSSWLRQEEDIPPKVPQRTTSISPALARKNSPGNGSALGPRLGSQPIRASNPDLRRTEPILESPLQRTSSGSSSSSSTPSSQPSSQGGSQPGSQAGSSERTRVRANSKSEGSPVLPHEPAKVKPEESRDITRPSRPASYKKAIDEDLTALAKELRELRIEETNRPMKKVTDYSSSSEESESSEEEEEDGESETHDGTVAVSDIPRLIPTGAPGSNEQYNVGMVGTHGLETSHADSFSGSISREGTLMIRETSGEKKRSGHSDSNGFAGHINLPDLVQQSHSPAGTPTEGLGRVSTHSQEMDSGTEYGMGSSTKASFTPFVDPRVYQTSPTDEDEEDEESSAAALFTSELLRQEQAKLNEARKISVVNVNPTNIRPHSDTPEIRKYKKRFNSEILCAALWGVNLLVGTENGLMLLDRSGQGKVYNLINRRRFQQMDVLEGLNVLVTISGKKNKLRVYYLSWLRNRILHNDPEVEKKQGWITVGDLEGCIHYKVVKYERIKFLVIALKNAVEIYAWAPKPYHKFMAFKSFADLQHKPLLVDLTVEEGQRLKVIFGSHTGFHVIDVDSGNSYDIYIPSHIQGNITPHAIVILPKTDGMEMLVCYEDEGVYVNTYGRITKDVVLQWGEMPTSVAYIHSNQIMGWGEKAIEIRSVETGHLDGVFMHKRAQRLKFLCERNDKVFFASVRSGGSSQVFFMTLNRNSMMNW

pKi: 7.00
SMILES: Cc1ccc(C(=O)Nc2sc(Nc3ccccc3)nc2C(N)=O)cc1 [KY-05009, 5-(4-methylbenzamido)-2-(phenylamino)thiazole-4-carboxamide]
